The nature of one data set: CHI Log D procedure. Format: physicochemical. The settings on record: for chromatographic logD: pH 7.4, CHI Log D; for CHI Log D: pH 7.4.
For data set [1], the target named is T1, beta-catenin/TCF4 engagement (Homo sapiens, UniProt P35222).
T1 construct: expressed in transfected cells; host or cells: HEK293
T1 sequence (P35222 1-781): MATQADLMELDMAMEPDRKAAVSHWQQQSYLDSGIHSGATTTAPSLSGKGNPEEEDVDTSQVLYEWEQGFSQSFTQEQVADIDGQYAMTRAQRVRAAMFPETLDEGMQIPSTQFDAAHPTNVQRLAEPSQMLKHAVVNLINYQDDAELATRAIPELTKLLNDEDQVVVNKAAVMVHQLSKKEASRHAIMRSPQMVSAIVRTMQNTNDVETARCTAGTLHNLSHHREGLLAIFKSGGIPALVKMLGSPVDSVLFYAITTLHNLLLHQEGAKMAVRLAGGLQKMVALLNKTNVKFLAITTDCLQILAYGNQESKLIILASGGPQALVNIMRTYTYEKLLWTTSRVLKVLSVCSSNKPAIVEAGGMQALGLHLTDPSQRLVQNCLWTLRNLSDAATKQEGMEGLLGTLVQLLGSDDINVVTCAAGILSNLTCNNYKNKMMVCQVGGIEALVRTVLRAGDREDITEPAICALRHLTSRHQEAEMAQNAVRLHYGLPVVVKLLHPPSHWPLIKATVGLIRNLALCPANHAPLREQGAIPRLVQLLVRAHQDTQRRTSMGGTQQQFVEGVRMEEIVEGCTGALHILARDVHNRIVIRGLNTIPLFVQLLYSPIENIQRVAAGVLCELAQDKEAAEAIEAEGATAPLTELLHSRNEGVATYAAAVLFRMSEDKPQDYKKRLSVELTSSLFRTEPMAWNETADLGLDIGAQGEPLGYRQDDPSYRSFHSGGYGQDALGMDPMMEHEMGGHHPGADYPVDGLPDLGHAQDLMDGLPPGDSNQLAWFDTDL
Nature of the data set: Nano-BRET target engagement assay (B-cat-Halo & TCF4-Luc in HEK293 cells). Conditions: read-out: NanoBRET Abs IC50. Format: cell-based. On the technique in general: Bioluminescence resonance energy transfer reports proximity on the nanometre scale.

Data set [2] has as its target T2, full-length beta-Catenin (Uniprot ID P35222) (Homo sapiens, UniProt P35222).
T2 construct: 10 nM full-length beta-Catenin (Uniprot ID P35222)
T2 sequence (P35222 1-781): T1 sequence (P35222 1-781)
Nature of the data set: Fluorescence polarization IC50 (beta-catenin / 5FAM-TCF4 10-53 competition). It counts as binding. Conditions: fluorescence polarization; read-out: beta-Catenin FP IC50. Background: In fluorescence polarisation assays a small probe gives low polarisation when free and higher when bound to something large.

The chromatographic logD is lipophilicity estimated from chromatographic retention. A low value points to a more hydrophilic compound. Usually IC50 stands for the point on the concentration scale where inhibition reaches its midpoint.

`CC(=O)N[C@@H](Cc1ccccc1)C(=O)N[C@@H](CC(=O)O)C(=O)N[C@@H](C)C(=O)N[C@]1(C)CCN(C)C(=O)OCC=CCCCCC[C@@](C)(C(=O)N[C@@H](Cc2ccccc2)C(=O)N[C@@H](Cc2c[nH]c3ccccc23)C(=O)N[C@@H](CCC(N)=O)C(N)=O)NC(=O)[C@H](C(C)C)NC(=O)[C@H](Cc2ccccc2)NC(=O)[C@H](C)NC(=O)[C@H](C)NC(=O)[C@H](CC(=O)O)NC(=O)[C@H](CC(=O)O)NC1=O` (single isomer, unassigned) [I-1, Ac-Phe-Asp-Ala-RdN-Asp-Asp-Ala-Ala-Phe-Val-S7-Phe-Trp-Gln-NH2]: in “CHI Log D procedure”, the chromatographic logD was 1.27.

Consider `CC(=O)N[C@@H](Cc1ccccc1)C(=O)N[C@@H](CC(=O)O)C(=O)N[C@@H](C)C(=O)N[C@]1(C)CCN(C)C(=O)OCC=CCCCCC[C@@](C)(C(=O)N[C@@H](Cc2ccccc2)C(=O)N[C@@H](Cc2c[nH]c3ccccc23)C(=O)N[C@@H](CCC(N)=O)C(N)=O)NC(=O)[C@H](C(C)C)NC(=O)[C@H](Cc2ccccc2)NC(=O)[C@H](C)NC(=O)[C@H](C)NC(=O)[C@H](CC(=O)O)NC(=O)[C@H](CC(=O)O)NC1=O` (single isomer, unassigned) [I-2, Ac-Phe-Asp-Ala-RdN-Asp-Asp-Ala-Ala-Phe-Val-S7-Phe-Trp-Gln-NH2], for which the “CHI Log D” value in “CHI Log D procedure” is 1.246.

Take `CC(=O)N[C@@H](Cc1ccccc1)C(=O)N[C@@H](CC(=O)O)C(=O)N[C@@H](C)C(=O)N[C@]1(C)CCCCCCC=CCOC(=O)N2CC[C@@](C(=O)N[C@@H](Cc3ccccc3)C(=O)N[C@@H](Cc3c[nH]c4ccccc34)C(=O)N[C@@H](CCC(N)=O)C(N)=O)(C2)NC(=O)[C@H](C(C)C)NC(=O)[C@H](Cc2ccccc2)NC(=O)[C@H](C)NC(=O)[C@H](C)NC(=O)[C@H](CCCC(=O)O)NC(=O)[C@H](CC(=O)O)NC1=O` (single isomer, unassigned) [I-5, Ac-Phe-Asp-Ala-R8-Asp-Aad-Ala-Ala-Phe-Val-PyrS-Phe-Trp-Gln-NH2]: the chromatographic logD in “CHI Log D procedure” was 1.33.

For `CC(=O)N[C@@H](Cc1ccccc1)C(=O)N[C@@H](CC(=O)O)C(=O)N[C@@H](C)C(=O)N[C@]1(C)CCCCCCC=CCOC(=O)N2CC[C@@](C(=O)N[C@@H](Cc3ccccc3)C(=O)N[C@@H](Cc3c[nH]c4ccccc34)C(=O)N[C@@H](CCC(N)=O)C(N)=O)(C2)NC(=O)[C@H](C(C)C)NC(=O)[C@H](Cc2ccccc2)NC(=O)[C@H](C)NC(=O)[C@H](C)NC(=O)[C@H](Cc2ccc(C(=O)O)cc2)NC(=O)[C@H](CC(=O)O)NC1=O` (single isomer, unassigned) [I-7, Ac-Phe-Asp-Ala-R8-Asp-4COOHF-Ala-Ala-Phe-Val-PyrS-Phe-Trp-Gln-NH2], in “CHI Log D procedure”, the chromatographic logD was 1.32. The chromatographic logD values of the last two compounds are within 0.2 log units of each other.

As for `CC(=O)N[C@@H](Cc1ccccc1)C(=O)N[C@@H](CC(=O)O)C(=O)N[C@@H](C)C(=O)N[C@]1(C)CCCCCCC=CCOC(=O)N2CC[C@@](C(=O)N[C@@H](Cc3ccccc3)C(=O)N[C@@H](Cc3c[nH]c4ccccc34)C(=O)N[C@@H](CCC(N)=O)C(N)=O)(C2)NC(=O)[C@H](C(C)C)NC(=O)[C@H](Cc2ccccc2)NC(=O)[C@H](C)NC(=O)[C@H](C)NC(=O)[C@H](Cc2ccc(C(=O)O)cc2)NC(=O)[C@H](CC(=O)O)NC1=O` (single isomer, unassigned) [I-8, Ac-Phe-Asp-Ala-R8-Asp-4COOHF-Ala-Ala-Phe-Val-PyrS-Phe-Trp-Gln-NH2], the “CHI Log D” value in the data set “CHI Log D procedure” is given as 1.349.

`CC(=O)N[C@@H](Cc1ccccc1)C(=O)N[C@@H](CC(=O)O)C(=O)N[C@@H](C)C(=O)N[C@]1(C)CCCCCCC=CCOC(=O)N2CC[C@@](C(=O)N[C@@H](Cc3ccccc3)C(=O)N[C@@H](Cc3c[nH]c4ccccc34)C(=O)N[C@@H](CCC(N)=O)C(N)=O)(C2)NC(=O)[C@H](C(C)C)NC(=O)[C@H](Cc2ccccc2)NC(=O)[C@H](C)NC(=O)[C@H](C)NC(=O)[C@H](Cc2cccnc2)NC(=O)[C@H](CC(=O)O)NC1=O` (single isomer, unassigned) [I-9, Ac-Phe-Asp-Ala-R8-Asp-3PyrA-Ala-Ala-Phe-Val-PyrS-Phe-Trp-Gln-NH2] had a chromatographic logD in the data set “CHI Log D procedure” of 1.65.

Take `CC(=O)N[C@@H](Cc1ccccc1)C(=O)N[C@@H](CC(=O)O)C(=O)N[C@@H](C)C(=O)N[C@]1(C)CCCCCCC=CCOC(=O)N2CC[C@@](C(=O)N[C@@H](Cc3ccccc3)C(=O)N[C@@H](Cc3c[nH]c4ccccc34)C(=O)N[C@@H](CCC(N)=O)C(N)=O)(C2)NC(=O)[C@H](C(C)C)NC(=O)[C@H](Cc2ccccc2)NC(=O)[C@H](C)NC(=O)[C@H](C)NC(=O)[C@H](Cc2cccnc2)NC(=O)[C@H](CC(=O)O)NC1=O` (single isomer, unassigned) [I-10, Ac-Phe-Asp-Ala-R8-Asp-3PyrA-Ala-Ala-Phe-Val-PyrS-Phe-Trp-Gln-NH2]: the “CHI Log D” value in “CHI Log D procedure” is given as 1.661.

Compound `CC(=O)N[C@@H](Cc1ccccc1)C(=O)N[C@@H](CC(=O)O)C(=O)N[C@@H](C)C(=O)N[C@]1(C)CCCCCCC=CCOC(=O)N2CC[C@@](C(=O)N[C@@H](Cc3ccccc3)C(=O)N[C@@H](Cc3c[nH]c4ccccc34)C(=O)N[C@@H](CCC(N)=O)C(N)=O)(C2)NC(=O)[C@H](C(C)C)NC(=O)[C@H](Cc2ccccc2)NC(=O)[C@H](C)NC(=O)[C@H](C)NC(=O)[C@H](Cc2ccc(-c3ccccc3)cc2)NC(=O)[C@H](CC(=O)O)NC1=O` (single isomer, unassigned) [I-11, Ac-Phe-Asp-Ala-R8-Asp-Bip-Ala-Ala-Phe-Val-PyrS-Phe-Trp-Gln-NH2] gave a chromatographic logD in the data set “CHI Log D procedure” of 2.27.

`CC(=O)N[C@@H](Cc1ccccc1)C(=O)N[C@@H](CC(=O)O)C(=O)N[C@@H](C)C(=O)N[C@]1(C)CCCCCCC=CCOC(=O)N2CC[C@@](C(=O)N[C@@H](Cc3ccccc3)C(=O)N[C@@H](Cc3c[nH]c4ccccc34)C(=O)N[C@@H](CCC(N)=O)C(N)=O)(C2)NC(=O)[C@H](C(C)C)NC(=O)[C@H](Cc2ccccc2)NC(=O)[C@H](C)NC(=O)[C@H](C)NC(=O)[C@H](Cc2ccc(-c3ccccc3)cc2)NC(=O)[C@H](CC(=O)O)NC1=O` (single isomer, unassigned) [I-12, Ac-Phe-Asp-Ala-R8-Asp-Bip-Ala-Ala-Phe-Val-PyrS-Phe-Trp-Gln-NH2]: in the data set “CHI Log D procedure”, the “CHI Log D” value came out at 2.247.

As to `CCCC[C@@H]1NC(=O)[C@H](CC(=O)O)NC(=O)[C@](C)(NC(=O)[C@H](C)NC(=O)[C@H](CC(=O)O)NC(=O)[C@H](Cc2ccccc2)NC(C)=O)CCCCCCC=CCOC(=O)N2CC[C@@](C(=O)N[C@@H](Cc3ccccc3)C(=O)N[C@@H](Cc3c[nH]c4ccccc34)C(=O)N[C@@H](CCC(N)=O)C(N)=O)(C2)NC(=O)[C@H](C(C)C)NC(=O)[C@H](Cc2ccccc2)NC(=O)[C@H](C)NC(=O)[C@H](C)NC1=O` (single isomer, unassigned) [I-13, Ac-Phe-Asp-Ala-R8-Asp-nLeu-Ala-Ala-Phe-Val-PyrS-Phe-Trp-Gln-NH2], the chromatographic logD in the data set “CHI Log D procedure” was 2.01.

Turning to `CC(=O)N1CCC[C@]12CC1OC1CCCC1(CCCC=CCCCOC(=O)N3CC[C@@](C(=O)N[C@@H](Cc4ccsc4)C(=O)N[C@@H](Cc4csc5ccccc45)C(=O)N[C@@H](CCC(N)=O)C(N)=O)(C3)NC(=O)[C@H](CC(C)C)NC(=O)[C@H](Cc3ccccc3)NC(=O)[C@H](C)NC(=O)[C@H](C)NC(=O)[C@H](CN(CC(=O)O)CC(F)(F)F)NC(=O)[C@H](CC(=O)O)NC1=O)NC(=O)[C@H](CC(C)(C)C)NC(=O)[C@H](CC(=O)O)NC2=O` (stereo partly drawn) [I-2594, Ac-PL3-Asp-Npg-B5-Asp-TfeGA-Ala-Ala-Phe-Leu-PyrS2-3Thi-BztA-Gln-NH2], the half-maximal inhibitory concentration (IC50) in data set [1] was more than 20000 nM; in data set [2] it was 470 nM.

As for `CC(=O)N1CCC[C@]12CC1OC1CCCC1(CCCC=CCCCOC(=O)N3CC[C@@](C(=O)N[C@@H](Cc4ccsc4)C(=O)N[C@@H](Cc4csc5ccccc45)C(=O)N[C@@H](CCC(N)=O)C(N)=O)(C3)NC(=O)[C@H](CC(C)C)NC(=O)[C@H](Cc3ccccc3)NC(=O)[C@H](C)NC(=O)[C@H](C)NC(=O)[C@H](CN(CC(=O)O)CC(F)(F)F)NC(=O)[C@H](CC(=O)O)NC1=O)NC(=O)[C@H](CC(C)(C)C)NC(=O)[C@H](CC(=O)O)NC2=O` (stereo partly drawn) [I-2595, Ac-PL3-Asp-Npg-B5-Asp-TfeGA-Ala-Ala-Phe-Leu-PyrS2-3Thi-BztA-Gln-NH2], the figures for the half-inhibitory concentration (IC50) in data set [1] and in data set [2] were more than 20000 nM and 356 nM, respectively.

On to `CC(C)C[C@H](NC(=O)[C@]12CCN(C1)C(=O)OCCCC=CCCCC1(CCCC=CCCC(=O)N3CCC[C@@]3(C)C(=O)N[C@@H](CC(=O)O)C(=O)N1)C(=O)N[C@@H](C)C(=O)N[C@@H](CC(=O)O)C(=O)N[C@@H](CC(=O)O)C(=O)N[C@@H](C)C(=O)N[C@@H](C)C(=O)N[C@@H](Cc1ccccc1)C(=O)N2)C(=O)N[C@@H](Cc1ccsc1)C(=O)N[C@@H](Cc1csc2ccccc12)C(=O)N[C@@H](CCC(N)=O)C(N)=O` (stereo partly drawn) [I-2599, 4pentenyl-MePro-Asp-B5-Ala-Asp-Asp-Ala-Ala-Phe-PyrS2-Leu-3Thi-BztA-Gln-NH2], for which the 50% inhibitory concentration (IC50) in data set [1] was more than 20000 nM; in data set [2] it was 234 nM.
